Experimental findings from PubChem BioAssay AID651581 (Sanford-Burnham Center for Chemical Genomics, 2012) are described below.

For orientation: pIC50 means the IC50 on a negative log10 scale, so that one unit is a factor of ten. Broadly, the IC50 is the concentration that gives 50% inhibition.

pIC50: −log10 of the molar value. Calls of active or inactive are those of the source. The rule behind the calls is not given here.

The target in assay [1] is Hypoxia-inducible factor 1-alpha (Homo sapiens) (UniProt Q16665). The assay can be described thus: potency against HIF reporters across cell lines – luminescence, panel, selectivity assay for HIF-2a inhibitor project, dose response (AID 651581). To be noted: human cell HIF reporter, HIF-1a.
Assay [2] concerns the target Endothelial PAS domain-containing protein 1 (Homo sapiens) (UniProt Q99814). The assay is described as above. To be noted: human cell HIF reporter.

Chain of Hypoxia-inducible factor 1-alpha (Homo sapiens) (Q16665 whole entry, looked up, the tested form may be a part): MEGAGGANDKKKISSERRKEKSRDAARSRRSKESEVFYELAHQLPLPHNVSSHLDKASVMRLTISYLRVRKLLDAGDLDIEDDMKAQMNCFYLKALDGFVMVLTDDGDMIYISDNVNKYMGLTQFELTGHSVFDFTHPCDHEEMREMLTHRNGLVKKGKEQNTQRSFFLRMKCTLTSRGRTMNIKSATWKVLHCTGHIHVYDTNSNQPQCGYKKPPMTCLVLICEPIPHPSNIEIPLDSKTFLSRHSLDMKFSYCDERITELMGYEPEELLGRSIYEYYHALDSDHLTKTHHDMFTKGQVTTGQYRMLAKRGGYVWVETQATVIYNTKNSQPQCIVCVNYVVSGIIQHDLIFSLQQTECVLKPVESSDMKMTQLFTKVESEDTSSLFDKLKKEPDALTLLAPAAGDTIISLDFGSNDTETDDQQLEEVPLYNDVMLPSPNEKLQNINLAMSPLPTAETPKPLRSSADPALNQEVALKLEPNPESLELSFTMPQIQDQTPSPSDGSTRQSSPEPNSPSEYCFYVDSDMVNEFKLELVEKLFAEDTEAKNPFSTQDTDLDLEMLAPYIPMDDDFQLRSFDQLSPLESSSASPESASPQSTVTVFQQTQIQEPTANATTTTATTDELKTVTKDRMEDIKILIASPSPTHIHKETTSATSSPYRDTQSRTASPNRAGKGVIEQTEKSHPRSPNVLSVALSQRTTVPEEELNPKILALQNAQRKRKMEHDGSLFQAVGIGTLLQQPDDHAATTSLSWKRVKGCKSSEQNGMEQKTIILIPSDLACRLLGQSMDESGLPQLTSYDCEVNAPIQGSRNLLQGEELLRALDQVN

Consider `O=C(O)c1cccc(CSc2nnc(COc3ccccc3)o2)c1`, for which the negative-log IC50 (pIC50) in assay [1] (run 1) was less than 4.00; in assay [1] (run 2), less than 4.00; in assay [2] (HIF-2a PANC, run 1) it was less than 4.00; in assay [2] (HIF-2a PANC, run 2), 4.73; in assay [2] (HIF-2a, mean of runs), 5.20; in assay [2] (HIF-2a, run 1), 5.19. This compound had a pIC50 in assay [2] (HIF-2a, run 2) of 5.21.
On to `COc1ccccc1C(C[N+](=O)[O-])c1c(N)n(C)c(=O)n(C)c1=O` (configuration not stated), for which, in assay [1] (mean of runs), the IC50 result is “inactive”. Further, the pIC50 is 4.68 in assay [1] (run 1); 4.77 in assay [1] (run 2); less than 4.00 in assay [2] (HIF-2a PANC, run 1); 4.28 in assay [2] (HIF-2a PANC, run 2); 5.01 in assay [2] (HIF-2a, mean of runs); 4.99 in assay [2] (HIF-2a, run 1). The same compound gave a pIC50 in assay [2] (HIF-2a, run 2) of 5.02.
For the compound `Cc1ccc(NC(=O)c2cc(N3C(=O)C=CC3=O)ccc2N2CCOCC2)cc1`, the pIC50 in assay [1] (run 1) was 4.19; in assay [1] (run 2), less than 4.00; in assay [2] (HIF-2a PANC, run 1), less than 4.00; in assay [2] (HIF-2a PANC, run 2), less than 4.00; in assay [2] (HIF-2a, mean of runs) it was 5.01; in assay [2] (HIF-2a, run 1), 5.02. The same compound had a pIC50 in assay [2] (HIF-2a, run 2) of 5.00. Further, the IC50 in assay [2] (HIF-2a PANC, mean of runs) is > 99 µM (inactive).
With `FC(F)(F)c1cnc(NNC(=S)Nc2ccccc2)c(Cl)c1`, the pIC50 in assay [1] (mean of runs) was 4.54; in assay [1] (run 1) it was 4.86; in assay [1] (run 2) it was 4.36; in assay [2] (HIF-2a PANC, mean of runs), 5.64; in assay [2] (HIF-2a PANC, run 1) it was 5.91; in assay [2] (HIF-2a PANC, run 2), 5.47. Also, the pIC50 in assay [2] (HIF-2a, mean of runs) is 5.11; in assay [2] (HIF-2a, run 1), 5.07; in assay [2] (HIF-2a, run 2), 5.15.
With `CC(C)c1ccc(/C=N/Nc2ccc(C(=O)O)cc2)cc1`, the pIC50 in assay [1] (mean of runs) is 4.61; in assay [1] (run 1), 4.55; in assay [1] (run 2), 4.66; in assay [2] (HIF-2a PANC, mean of runs), greater than 6.00; in assay [2] (HIF-2a PANC, run 1), greater than 5.52; in assay [2] (HIF-2a PANC, run 2), greater than 6.00. For the same compound, the negative logarithm of the IC50 (pIC50) in assay [2] (HIF-2a, run 1) was 5.10; in assay [2] (HIF-2a, run 2), greater than 6.72.
Turning to `O=C(Nc1ccc(F)cc1)c1nc(S(=O)(=O)Cc2ccccc2)ncc1Cl`, the IC50 result in assay [1] (mean of runs) was “inactive”; in assay [2] (HIF-2a PANC, mean of runs), “inactive”. Further, the pIC50 in assay [1] (run 1) was 4.83; in assay [1] (run 2), 4.78; in assay [2] (HIF-2a PANC, run 1), 4.58; in assay [2] (HIF-2a PANC, run 2) it was 4.66; in assay [2] (HIF-2a, mean of runs) it was 5.12; in assay [2] (HIF-2a, run 1), 5.11. The same compound had a pIC50 in assay [2] (HIF-2a, run 2) of 5.13.
`COC(=O)CCCNC(=O)CCc1nnc(-c2ccc(-c3ccccc3)cc2)o1`: the negative-log IC50 (pIC50) in assay [1] (run 1) was less than 4.00; in assay [1] (run 2), less than 4.00; in assay [2] (HIF-2a PANC, run 1), less than 4.00; in assay [2] (HIF-2a PANC, run 2) it was 4.67; in assay [2] (HIF-2a, mean of runs), 5.55; in assay [2] (HIF-2a, run 1), 5.52. Further, the pIC50 in assay [2] (HIF-2a, run 2) is 5.59.
For `O=C(O)c1cccc(CSc2nnc(-c3ccc(Cl)cc3)o2)c1`, the pIC50 in assay [1] (run 1) was less than 4.00; in assay [1] (run 2), less than 4.00; in assay [2] (HIF-2a PANC, mean of runs), 5.55; in assay [2] (HIF-2a PANC, run 1), 5.52; in assay [2] (HIF-2a PANC, run 2), 5.59; in assay [2] (HIF-2a, mean of runs) it was 5.71. Besides, the pIC50 in assay [2] (HIF-2a, run 1) was 5.73; in assay [2] (HIF-2a, run 2), 5.68.
As for `O=C(c1ccccc1)N1CCSc2sccc2C1=O`, the negative-log IC50 (pIC50) in assay [1] (mean of runs) is 4.25; in assay [1] (run 1), 4.24; in assay [1] (run 2) it was 4.26; in assay [2] (HIF-2a PANC, mean of runs), 4.72; in assay [2] (HIF-2a PANC, run 1) it was 4.55; in assay [2] (HIF-2a PANC, run 2), 5.01. Also, the pIC50 was 5.17 in assay [2] (HIF-2a, mean of runs); 5.16 in assay [2] (HIF-2a, run 1); 5.18 in assay [2] (HIF-2a, run 2).
For the compound `CCOC(=O)c1cccc(NC(=O)/C=C/c2ccc3c(c2)OCO3)c1`, the IC50 entry is “inactive” in assay [1] (mean of runs) and “inactive” in assay [2] (HIF-2a, mean of runs). For the same compound, the pIC50 in assay [1] (run 1) was 4.59; in assay [1] (run 2), 4.56; in assay [2] (HIF-2a PANC, run 1) it was 4.37; in assay [2] (HIF-2a PANC, run 2), less than 4.00; in assay [2] (HIF-2a, run 1), 4.73; in assay [2] (HIF-2a, run 2), 4.83.
Consider `COc1ccc(CNC(=O)CCc2c(C)nc3cc(-c4ccccc4OC)nn3c2C)cc1`, for which the IC50 entry in assay [1] (mean of runs) is “inactive”. For the same compound, the pIC50 in assay [1] (run 1) is 4.57; in assay [1] (run 2) it was 5.17; in assay [2] (HIF-2a PANC, run 1), less than 4.00; in assay [2] (HIF-2a PANC, run 2) it was 4.93; in assay [2] (HIF-2a, mean of runs) it was 5.03; in assay [2] (HIF-2a, run 1) it was 5.00. For the same compound, the negative logarithm of the IC50 (pIC50) in assay [2] (HIF-2a, run 2) was 5.07.
On to `O=C(CCCSc1nc2ccccc2s1)NC1=NCCS1`, for which, in assay [1] (mean of runs), the IC50 entry is “inactive”. The pIC50 in assay [1] (run 1) is 4.82; in assay [1] (run 2), 4.98; in assay [2] (HIF-2a PANC, mean of runs) it was 5.13; in assay [2] (HIF-2a PANC, run 1), 5.14; in assay [2] (HIF-2a PANC, run 2) it was 5.13; in assay [2] (HIF-2a, mean of runs), 5.20. For the same compound, the pIC50 in assay [2] (HIF-2a, run 1) was 5.15; in assay [2] (HIF-2a, run 2), 5.24.
Take `O=Nc1c(O)ccc2cc(S(=O)(=O)O)ccc12`: the pIC50 in assay [1] (run 1) is 5.51; in assay [1] (run 2), less than 4.00; in assay [2] (HIF-2a PANC, run 1), 4.59; in assay [2] (HIF-2a PANC, run 2) it was 4.29; in assay [2] (HIF-2a, mean of runs) it was 5.06; in assay [2] (HIF-2a, run 1) it was 5.06. The negative logarithm of the IC50 (pIC50) in assay [2] (HIF-2a, run 2) was 5.05. For the same compound, the IC50 result in assay [2] (HIF-2a PANC, mean of runs) is “inactive”.
For the compound `COc1ccc2nc(-c3ccc(N)cc3)[nH]c2c1`, the pIC50 in assay [1] (mean of runs) was 4.38; in assay [1] (run 1), 4.41; in assay [1] (run 2), 4.35; in assay [2] (HIF-2a PANC, mean of runs) it was 5.44; in assay [2] (HIF-2a PANC, run 1), 5.26; in assay [2] (HIF-2a PANC, run 2), 5.75. The pIC50 is 5.73 in assay [2] (HIF-2a, mean of runs); 5.59 in assay [2] (HIF-2a, run 1); 5.92 in assay [2] (HIF-2a, run 2).
Turning to `COc1cccc(NC(=O)c2nc(S(C)(=O)=O)ncc2Cl)c1`, the IC50 entry was “inactive” in assay [1] (mean of runs); “inactive” in assay [2] (HIF-2a PANC, mean of runs); “inactive” in assay [2] (HIF-2a, mean of runs). In addition, the negative-log IC50 (pIC50) was 4.83 in assay [1] (run 1); 4.55 in assay [1] (run 2); 4.49 in assay [2] (HIF-2a PANC, run 1); 4.05 in assay [2] (HIF-2a PANC, run 2); 4.91 in assay [2] (HIF-2a, run 1); 4.95 in assay [2] (HIF-2a, run 2).
`O=C1C=C(c2ccccc2)C(=O)N1Nc1ccccc1`: the negative-log IC50 (pIC50) is 4.08 in assay [1] (mean of runs); 4.12 in assay [1] (run 1); 4.05 in assay [1] (run 2); less than 4.00 in assay [2] (HIF-2a PANC, run 1); less than 4.00 in assay [2] (HIF-2a PANC, run 2); 4.95 in assay [2] (HIF-2a, run 1). The compound also gave a pIC50 in assay [2] (HIF-2a, run 2) of 4.98. Besides, the IC50 in assay [2] (HIF-2a PANC, mean of runs) was > 99 µM (inactive). The IC50 entry in assay [2] (HIF-2a, mean of runs) was “inactive”.
In the case of `O=C(CSc1nnc(-c2ccc(Br)cc2)o1)Nc1cccc(C(=O)O)c1`, the pIC50 in assay [1] (run 1) is less than 4.00; in assay [1] (run 2) it was less than 4.00; in assay [2] (HIF-2a PANC, run 1) it was less than 4.00; in assay [2] (HIF-2a PANC, run 2), less than 4.00; in assay [2] (HIF-2a, mean of runs) it was 5.01; in assay [2] (HIF-2a, run 1), 4.98. In assay [2] (HIF-2a, run 2), this compound had a pIC50 of 5.04. The IC50 in assay [2] (HIF-2a PANC, mean of runs) was > 99 µM (inactive).
On to `Cc1cc(C)cc(C(=O)NC(=S)Nc2ccc(-c3cc4ccccc4oc3=O)cc2)c1`, for which the IC50 is > 99 µM (inactive) in assay [1] (mean of runs) and > 99 µM (inactive) in assay [2] (HIF-2a, mean of runs). Besides, the negative logarithm of the IC50 (pIC50) was less than 4.00 in assay [1] (run 1); less than 4.00 in assay [1] (run 2); less than 4.00 in assay [2] (HIF-2a PANC, run 1); less than 4.00 in assay [2] (HIF-2a PANC, run 2); less than 4.00 in assay [2] (HIF-2a, run 1); less than 4.00 in assay [2] (HIF-2a, run 2).
As for `CC(C)(C)c1ccc(-c2noc(CCC(=O)NCc3ccco3)n2)cc1`, the pIC50 is greater than 6.72 in assay [1] (run 1); 4.38 in assay [1] (run 2); greater than 5.52 in assay [2] (HIF-2a PANC, mean of runs); greater than 5.52 in assay [2] (HIF-2a PANC, run 1); greater than 5.52 in assay [2] (HIF-2a PANC, run 2); greater than 6.00 in assay [2] (HIF-2a, mean of runs). In addition, the pIC50 in assay [2] (HIF-2a, run 1) is greater than 6.00; in assay [2] (HIF-2a, run 2) it was greater than 6.00.
